Target: Sodium-dependent dopamine transporter (Rattus norvegicus, UniProt P23977)
Assay: Binding affinity against dopamine transporter in rat caudate putamen tissue using [3H]WIN-35428 radioligand.
Assay type: tissue-based

Chain of Sodium-dependent dopamine transporter (P23977 whole entry): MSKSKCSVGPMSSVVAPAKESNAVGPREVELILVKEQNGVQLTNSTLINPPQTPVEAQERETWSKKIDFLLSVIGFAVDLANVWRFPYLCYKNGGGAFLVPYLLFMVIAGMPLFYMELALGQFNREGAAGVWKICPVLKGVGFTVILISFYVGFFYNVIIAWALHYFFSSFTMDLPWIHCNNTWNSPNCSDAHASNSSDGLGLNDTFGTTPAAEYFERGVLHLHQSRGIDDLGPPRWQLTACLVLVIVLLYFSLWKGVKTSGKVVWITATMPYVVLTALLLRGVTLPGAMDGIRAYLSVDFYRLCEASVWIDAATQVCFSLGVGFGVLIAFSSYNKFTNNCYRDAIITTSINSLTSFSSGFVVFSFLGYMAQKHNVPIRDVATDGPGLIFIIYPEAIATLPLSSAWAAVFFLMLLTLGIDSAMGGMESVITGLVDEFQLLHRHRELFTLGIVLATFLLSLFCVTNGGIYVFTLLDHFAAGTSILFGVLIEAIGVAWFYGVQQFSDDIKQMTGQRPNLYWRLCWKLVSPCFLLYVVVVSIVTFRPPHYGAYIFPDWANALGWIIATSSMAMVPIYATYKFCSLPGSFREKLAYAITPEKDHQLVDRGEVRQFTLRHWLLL

Row | Structure (SMILES) | Ki
1 | CN1C2CCCC1C(C(=O)c1ccccc1)C(c1ccccc1)C2 (stereo in doubt; 13) | 3.97 µM
2 | CN1C2CCCC1C(C(=O)c1ccccc1)C(c1ccccc1)C2 (stereo in doubt; 14) | 1.91 µM
3 | CO/C(O)=C1/C(=O)CCC2CCCC1N2C (centres undefined) | > 100 µM
4 | COC(=O)[C@@H]1C2CC[C@H](C[C@@H]1c1ccccc1)N2C | 0.31 µM
